According to ChEMBL document CHEMBL3885861, “Open TG-GATES”:

Species on record: Rattus norvegicus
Assay: Open TG-GATES - Regimen: Daily Repeat
Assay type: toxicity, organism-based, Sprague-Dawley
Design: regimen Daily Repeat, gender Male, age 6 weeks
Conditions: in vivo, po, 60 mg/kg, route gavage, dose level Low; for APTT / Bas / Eos / Fbg / Hb / Ht / Lym / MCH / MCHC / MCV / Mono / Neu / PT / Plat / RBC / Ret / WBC: tissue Blood; for KIDNEY_L / KIDNEY_R / KIDNEY_TOTAL: tissue Kidney; for LIVER: tissue Liver; for A/G / ALP / ALT / AST / BUN / CRE / Ca / Cl / DBIL / GLC / IP / K / LDH / Na / PL / RALB / TBIL / TC / TG / TP / gamma-GTP: tissue Plasma

In the case of `C[C@](N)(Cc1ccc(O)c(O)c1)C(=O)O` [METHYLDOPA], the TERMINAL_BW (72 h, time 3 day) is reported as 205.8 g, the APTT (72 h, time 3 day) is reported as 17.3 s and the Bas (72 h, time 3 day) is reported as 0%. The Eos (72 h, time 3 day) was 1%, the Fbg (72 h, time 3 day) was 249 mg/dL and the Hb (72 h, time 3 day) was 13.5 g/dL. For the same compound, the Ht (72 h, time 3 day) was 39.1%, the Lym (72 h, time 3 day) was 77.8% and the MCH (72 h, time 3 day) was 21.6 pg. The MCHC (72 h, time 3 day) was 34.4%, the MCV (72 h, time 3 day) was 62.9 fL and the Mono (72 h, time 3 day) was 2.8%. For the same compound, the Neu (72 h, time 3 day) was 17.8%, the PT (72 h, time 3 day) was 12.6 s and the Plat (72 h, time 3 day) was 102.6 x10_4/uL. For the same compound, the RBC (72 h, time 3 day) was 623.2 x10_4/ul, the Ret (72 h, time 3 day) was 7.7% and the WBC (72 h, time 3 day) was 71 x10_2/uL. The KIDNEY_L (72 h, time 3 day) was 0.9 g, the KIDNEY_R (72 h, time 3 day) was 0.9 g and the KIDNEY_TOTAL (72 h, time 3 day) was 1.8 g. For the same compound, the LIVER (72 h, time 3 day) was 8.9 g, the A/G (72 h, time 3 day) was 0.9 and the ALP (72 h, time 3 day) was 1905.6 IU/L. The ALT (72 h, time 3 day) was 60.6 IU/L, the AST (72 h, time 3 day) was 79.2 IU/L and the BUN (72 h, time 3 day) was 13.6 mg/dL. It also gave a CRE (72 h, time 3 day) of 0.2 mg/dL, a Ca (72 h, time 3 day) of 11.1 mg/dL and a Cl (72 h, time 3 day) of 106.8 meq/L. The DBIL (72 h, time 3 day) was 0.01 mg/dL, the GLC (72 h, time 3 day) was 172.6 mg/dL and the IP (72 h, time 3 day) was 7.4 mg/dL. The K (72 h, time 3 day) was 4 meq/L, the LDH (72 h, time 3 day) was 59.2 IU/L and the Na (72 h, time 3 day) was 144 meq/L. It also gave a PL (72 h, time 3 day) of 130 mg/dL, an RALB (72 h, time 3 day) of 2.6 g/dL and a TBIL (72 h, time 3 day) of 0.064 mg/dL. The TC (72 h, time 3 day) was 76.8 mg/dL, the TG (72 h, time 3 day) was 51.8 mg/dL and the TP (72 h, time 3 day) was 5.4 g/dL. The gamma-GTP (72 h, time 3 day) was 1 IU/L, the TERMINAL_BW ([…], time 7 day) was 237.3 g and the TERMINAL_BW ([…], time 14 day) was 281.9 g. For the same compound, the TERMINAL_BW ([…], time 28 day) was 389.2 g, the APTT ([…], time 7 day) was 16.2 s and the Bas ([…], time 7 day) was 0%. It also gave an Eos ([…], time 7 day) of 1%, a Fbg ([…], time 7 day) of 269.2 mg/dL and a Hb ([…], time 7 day) of 13.7 g/dL. It also gave a Ht ([…], time 7 day) of 39.9%, a Lym ([…], time 7 day) of 77.8% and an MCH ([…], time 7 day) of 21.8 pg. The MCHC ([…], time 7 day) was 34.3%, the MCV ([…], time 7 day) was 63.4 fL and the Mono ([…], time 7 day) was 3.2%. For the same compound, the Neu ([…], time 7 day) was 17.6%, the PT ([…], time 7 day) was 12.1 s and the Plat ([…], time 7 day) was 124.4 x10_4/uL. For the same compound, the RBC ([…], time 7 day) was 629 x10_4/ul, the Ret ([…], time 7 day) was 5.2% and the WBC ([…], time 7 day) was 68.8 x10_2/uL. For the same compound, the APTT ([…], time 14 day) was 16.9 s, the Bas ([…], time 14 day) was 0% and the Eos ([…], time 14 day) was 1%. For the same compound, the Fbg ([…], time 14 day) was 302.6 mg/dL, the Hb ([…], time 14 day) was 13.8 g/dL and the Ht ([…], time 14 day) was 39.6%. The Lym ([…], time 14 day) was 80.6%, the MCH ([…], time 14 day) was 20.5 pg and the MCHC ([…], time 14 day) was 34.9%. It also gave an MCV ([…], time 14 day) of 59 fL, a Mono ([…], time 14 day) of 2.6% and a Neu ([…], time 14 day) of 15.4%. For the same compound, the PT ([…], time 14 day) was 14 s, the Plat ([…], time 14 day) was 109.7 x10_4/uL and the RBC ([…], time 14 day) was 672.8 x10_4/ul. For the same compound, the Ret ([…], time 14 day) was 4.4%, the WBC ([…], time 14 day) was 64.6 x10_2/uL and the APTT ([…], time 28 day) was 18.8 s. The Bas ([…], time 28 day) was 0%, the Eos ([…], time 28 day) was 1.2% and the Fbg ([…], time 28 day) was 289 mg/dL. For the same compound, the Hb ([…], time 28 day) was 15 g/dL, the Ht ([…], time 28 day) was 42.9% and the Lym ([…], time 28 day) was 81.2%. It also gave an MCH ([…], time 28 day) of 19.7 pg, an MCHC ([…], time 28 day) of 35% and an MCV ([…], time 28 day) of 56.4 fL. It also gave a Mono ([…], time 28 day) of 2.2%, a Neu ([…], time 28 day) of 15% and a PT ([…], time 28 day) of 14 s. It also gave a Plat ([…], time 28 day) of 108.7 x10_4/uL, an RBC ([…], time 28 day) of 760.2 x10_4/ul and a Ret ([…], time 28 day) of 2.5%. It also gave a WBC ([…], time 28 day) of 77.4 x10_2/uL, a KIDNEY_L ([…], time 7 day) of 1 g and a KIDNEY_R ([…], time 7 day) of 1 g. For the same compound, the KIDNEY_TOTAL ([…], time 7 day) was 2 g, the KIDNEY_L ([…], time 14 day) was 1.1 g and the KIDNEY_R ([…], time 14 day) was 1.1 g. It also gave a KIDNEY_TOTAL ([…], time 14 day) of 2.2 g, a KIDNEY_L ([…], time 28 day) of 1.3 g and a KIDNEY_R ([…], time 28 day) of 1.3 g. For the same compound, the KIDNEY_TOTAL ([…], time 28 day) was 2.6 g, the LIVER ([…], time 7 day) was 10.4 g and the LIVER ([…], time 14 day) was 12.2 g. The LIVER ([…], time 28 day) was 15.2 g, the A/G ([…], time 7 day) was 0.9 and the ALP ([…], time 7 day) was 1395.8 IU/L. The ALT ([…], time 7 day) was 43.4 IU/L, the AST ([…], time 7 day) was 69.4 IU/L and the BUN ([…], time 7 day) was 13.4 mg/dL. For the same compound, the CRE ([…], time 7 day) was 0.2 mg/dL, the Ca ([…], time 7 day) was 11 mg/dL and the Cl ([…], time 7 day) was 106.8 meq/L. The DBIL ([…], time 7 day) was 0.008 mg/dL, the GLC ([…], time 7 day) was 184 mg/dL and the IP ([…], time 7 day) was 7.2 mg/dL. It also gave a K ([…], time 7 day) of 4.6 meq/L, an LDH ([…], time 7 day) of 65.6 IU/L and a Na ([…], time 7 day) of 145 meq/L. It also gave a PL ([…], time 7 day) of 138.8 mg/dL, an RALB ([…], time 7 day) of 2.7 g/dL and a TBIL ([…], time 7 day) of 0.066 mg/dL. It also gave a TC ([…], time 7 day) of 87.4 mg/dL, a TG ([…], time 7 day) of 51.2 mg/dL and a TP ([…], time 7 day) of 5.9 g/dL. For the same compound, the gamma-GTP ([…], time 7 day) was 1 IU/L, the A/G ([…], time 14 day) was 0.9 and the ALP ([…], time 14 day) was 1372.2 IU/L. It also gave an ALT ([…], time 14 day) of 40.6 IU/L, an AST ([…], time 14 day) of 61.6 IU/L and a BUN ([…], time 14 day) of 13.6 mg/dL. For the same compound, the CRE ([…], time 14 day) was 0.2 mg/dL, the Ca ([…], time 14 day) was 11.3 mg/dL and the Cl ([…], time 14 day) was 106.2 meq/L. For the same compound, the DBIL ([…], time 14 day) was 0.01 mg/dL, the GLC ([…], time 14 day) was 176.8 mg/dL and the IP ([…], time 14 day) was 6.6 mg/dL. For the same compound, the K ([…], time 14 day) was 4.3 meq/L, the LDH ([…], time 14 day) was 53 IU/L and the Na ([…], time 14 day) was 142 meq/L. It also gave a PL ([…], time 14 day) of 155.8 mg/dL, an RALB ([…], time 14 day) of 2.8 g/dL and a TBIL ([…], time 14 day) of 0.058 mg/dL. The TC ([…], time 14 day) was 89 mg/dL, the TG ([…], time 14 day) was 85.2 mg/dL and the TP ([…], time 14 day) was 5.9 g/dL. The gamma-GTP ([…], time 14 day) was 1 IU/L, the A/G ([…], time 28 day) was 0.8 and the ALP ([…], time 28 day) was 1102.4 IU/L. The ALT ([…], time 28 day) was 49.8 IU/L, the AST ([…], time 28 day) was 65.6 IU/L and the BUN ([…], time 28 day) was 16 mg/dL. It also gave a CRE ([…], time 28 day) of 0.2 mg/dL, a Ca ([…], time 28 day) of 11.1 mg/dL and a Cl ([…], time 28 day) of 106.6 meq/L. It also gave a DBIL ([…], time 28 day) of 0.018 mg/dL, a GLC ([…], time 28 day) of 180.2 mg/dL and an IP ([…], time 28 day) of 5.8 mg/dL. The K ([…], time 28 day) was 4.2 meq/L, the LDH ([…], time 28 day) was 47.6 IU/L and the Na ([…], time 28 day) was 143.6 meq/L. The PL ([…], time 28 day) was 147 mg/dL, the RALB ([…], time 28 day) was 2.7 g/dL and the TBIL ([…], time 28 day) was 0.058 mg/dL. For the same compound, the TC ([…], time 28 day) was 77 mg/dL, the TG ([…], time 28 day) was 101.6 mg/dL and the TP ([…], time 28 day) was 6.1 g/dL. The gamma-GTP ([…], time 28 day) was 1 IU/L.
